Data on two molecules can be found in article PMC3964211, “Pharmacokinetic modeling optimizes inhibition of the ‘undruggable’ EWS-FLI1 transcription factor in Ewing Sarcoma” (Oncotarget, 2013).

The data set in a line: Pharmacokinetics in SD rats, single IV injection. Format: in vivo, Sprague-Dawly (SD) rats. Conditions: for AUClast / AUC∞ / Clearance / Observed Cmax / Terminal Elimination Half-Life: analyte (S)-YK-4-279 in plasma. On the procedure:
To optimize dosing in animals, we determined the pharmacokinetics of YK-4-279 and its single enantiomers in Sprague-Dawly (SD) rats. Three rats of each gender were assigned to nine dose groups. Animals in Groups 1 through 3 received a single intravenous (IV) injection of racemic mixture, (S)-YK-4-279, or (R)-YK-4-279 at a dose of 25 mg/kg. Animals in Groups 4 through 9 received a single oral gavage administration of racemic mixture, (S)-YK-4-279, or (R)-YK-4-279 at a dosage level of 25 or 50 mg/kg. […] However, given that approximately 50 percent of the racemic mixture is (S)-YK-4-279 and the clearance […] the dose, the IV clearance of (S)-YK-4-279 is considered to be similar whether a racemic mixture or only (S)-YK-4-279 is administered. Systemic exposure to (S)-YK-4-279 was evaluated using Cmax and AUC values. Cmax and AUC8 values were similar between males and females for a given dose group. With an expected enantiomer ratio of 1:1 in the racemic dose, Group 2 animals would have received a 2-fold higher dose of (S)-YK-4-279 than Group 1 animals. […] Absolute bioavailability of (S)-YK-4-279 following gavage administration, using cremophor/ethanol as an excipient, in SD rats was only 2–6% (Table 2).
Nine SD rats of each gender were assigned to nine dose groups. Groups 1 through 3 received a single IV injection of racemic mixture, (S)-YK-4-279, or (R)-YK-4-279 at a dose of 25 mg/kg. Groups 4 through 9 received a single gavage administration of racemic mixture, (S)-YK-4-279, or (R)-YK-4-279 at a dosage level of 25 or 50 mg/kg. Blood samples were collected from one animal per group per time point at target time points of pre-dose, 5, 15, 30 and 60 minutes, and 2, 4, 8 and 12 hours following dosing. Plasma was obtained from the samples and analyzed for (S) and (R)-YK-4-279 concentrations.
The plasma and tumor sample analysis was performed using calibration standards and Quality Control (QC) samples prepared in control rat or mouse plasma and tumor tissues. Plasma and tumor calibration standards were prepared from stock solutions of YK-4-279. The calibration standards, blanks, QC samples, and study samples were then processed by solid-liquid extraction (SLE) followed by analysis using liquid chromatography with mass spectrometry (LC-MS). The LC-MS systems used for the analysis of YK-4-279 was composed of Shimadzo prominence pump and auto-sampler (Kyoto, Japan), a Sciex API 5000 MS (Toronto, Ontario), with turbo ion spary in the positive ion mode. The samples for the analysis of total YK-4-279 were injected into a 50 × 2 mm Gemini- NX, 5 ¼m column (Phenomenex, Torrance, CA). The samples for the analysis of the specific enantiomers of YK-4-279 were injected into a 150 × 2 mm Lux Cellulose-2, 3 ¼m Phenomenex column. The transitions monitored were 366 amu to 135 amu for YK-4-279 and 369 amu to 138 amu for the YK-4-279-d3 internal standard. YK-4-279 concentrations were calculated using peak area response ratios and a regression equation constructed from the concentrations and peak area response ratios of the calibration standards. The lower limit of quantitation was 5.0 ng/mL in plasma and […] in tumor tissue. The concentration-time profiles were evaluated by compartmental modeling and non-compartmental analysis using WinNonlin (Pharsight Corporation, Mountain View, CA). The PK parameters obtained from the compartmental modeling were used in simulations to identify optimal dose level and dosing schedule for maintaining plasma concentration of (S)-YK-4-279 above 3 ¼M.

The mark [1] stands for this setting: SD rats, female (n=9), single IV injection 25 mg/kg.
[2] abbreviates: SD rats, male (n=9), single IV injection 25 mg/kg.
Setting [3] is: SD rats, single IV injection 25 mg/kg, average of males and females, analyte (S)-YK-4-279.

`COc1ccc(C(=O)CC2(O)C(=O)Nc3c(Cl)ccc(Cl)c32)cc1` (centres unmarked) [YK-4-279]: under setting [1], the AUClast was determined as 25.6 hr*¼M, the “AUC∞” value amounted to 25.9 hr*¼M, the Clearance was found to be 44 mL/min/kg and the “Observed Cmax” value is 37.1 ¼M. For the same molecule, the “Terminal Elimination Half-Life” value under setting [1] stood at 36.1 min. Under setting [2], the AUClast turned out to be 26.5 hr*¼M, the “AUC∞” value turned out to be 26.7 hr*¼M, the Clearance was determined as 42.67 mL/min/kg and the “Observed Cmax” value is 39.9 ¼M. Moreover, the “Terminal Elimination Half-Life” value under setting [2] is 33.8 min. Under setting [3], the Average clearance worked out at 43.33 mL/min/kg and the Average elimination half-life turned out to be 35 min.
`COc1ccc(C(=O)C[C@]2(O)C(=O)Nc3c(Cl)ccc(Cl)c32)cc1` [(R)-YK-4-279]: for the setting “SD rats (Supplemental table 1, not available)”, the “Clearance slower than the clearance of (S)-YK-4-279” value is given as “approximately 25%”. Further, under setting [1], the AUClast entry is “BLOQ”, the “AUC∞” value is given as “BLOQ”, the Clearance result was “BLOQ” and the “Observed Cmax” value is listed as “BLOQ”. In addition, the “Terminal Elimination Half-Life” value under setting [1] is “BLOQ”. Besides, under setting [2], the AUClast entry is recorded as “BLOQ”, the “AUC∞” value is listed as “BLOQ”, the Clearance result is “BLOQ” and the “Observed Cmax” value was “BLOQ1”. In addition, under setting [2], the “Terminal Elimination Half-Life” value is on record as “BLOQ”.
